Measurements from US4889857A, “Quinolonecarboxylic acid compounds and pharmaceutical use thereof” (Yoshitomi Pharmaceutical Industries, Ltd., priority 1987, dated 1989).
Converted amounts (≈) assume the structure as drawn.

Key:
[1] = tested on: Staphylococcus aureus FDA 209P*; experiment: Antibacterial activity in vitro (MIC), horse blood medium; assay type: cell-based; conditions: FDA209P
Description: (§1) The antibacterial activities in vitro (minimum inhibitory concentration, MIC, μg/ml) of the test compounds were measured according to the standard method of the Japanese Chemotherapy Society (Chemotherapy, Vol. 23, p.1126, 1974).
(§2) (Inoculum size: 10^6 cells/ml, Organisms with asterisk (*) were
(§3) cultivated in a 10% horse bloodadded medium.)

[2] = tested on: Acinetobacter calcoaceticus ATCC 13006; experiment: Antibacterial activity in vitro (MIC); assay type: cell-based; conditions: ATCC13006
Description: as §1, §2, §3

[3] = tested on: Bacillus subtilis PCT 219; experiment: Antibacterial activity in vitro (MIC); assay type: cell-based; conditions: PCT219
Description: as §1, §2, §3

[4] = tested on: Citrobacter freundii IFO 12681; experiment: Antibacterial activity in vitro (MIC); assay type: cell-based; conditions: IFO12681, inoculum 10^6 cells/ml
Description: as §1, §2, §3

[5] = tested on: Corynebacterium diphtheriae Tronto; experiment: Antibacterial activity in vitro (MIC); assay type: cell-based
Description: as §1, §2, §3

[6] = tested on: Escherichia coli NIHJ JC-2; experiment: Antibacterial activity in vitro (MIC); assay type: cell-based; conditions: NIHJJC2
Description: as §1, §2, §3

Escherichia coli O-111 = experiment: Antibacterial activity in vitro (MIC); assay type: cell-based; conditions: O111, inoculum 10^6 cells/ml
Description: as §1, §2, §3

Escherichia coli T-7 = experiment: Antibacterial activity in vitro (MIC); assay type: cell-based; conditions: T7, inoculum 10^6 cells/ml
Description: as §1, §2, §3

Klebsiella pneumoniae DT = experiment: Antibacterial activity in vitro (MIC); assay type: cell-based
Description: as §1, §2, §3

[7] = tested on: Morganella morganii IFO 3168; experiment: Antibacterial activity in vitro (MIC); assay type: cell-based; conditions: IFO3168
Description: as §1, §2, §3

[8] = tested on: Pediococcus damnosus IFO 3895; experiment: Antibacterial activity in vitro (MIC); assay type: cell-based; conditions: IFO3895
Description: as §1, §2, §3

[9] = tested on: Proteus mirabilis IFO 3849; experiment: Antibacterial activity in vitro (MIC); assay type: cell-based; conditions: IFO3849
Description: as §1, §2, §3

[10] = tested on: Proteus vulgaris IFO 3988; experiment: Antibacterial activity in vitro (MIC); assay type: cell-based; conditions: IFO3988
Description: as §1, §2, §3

[11] = tested on: Pseudomonas aeruginosa IFO 12582; experiment: Antibacterial activity in vitro (MIC); assay type: cell-based; conditions: IFO12582
Description: as §1, §2, §3

[12] = tested on: Pseudomonas aeruginosa U-31; experiment: Antibacterial activity in vitro (MIC); assay type: cell-based; conditions: U31
Description: as §1, §2, §3

[13] = tested on: Pseudomonas putida IFO 12996; experiment: Antibacterial activity in vitro (MIC); assay type: cell-based; conditions: IFO12996
Description: as §1, §2, §3

[14] = tested on: Serratia marcescens IFO 12648; experiment: Antibacterial activity in vitro (MIC); assay type: cell-based; conditions: IFO12648
Description: as §1, §2, §3

Shigella flexneri EW-10 = experiment: Antibacterial activity in vitro (MIC); assay type: cell-based; conditions: EW10, inoculum 10^6 cells/ml
Description: as §1, §2, §3

Shigella sonnei EW-33 = experiment: Antibacterial activity in vitro (MIC); assay type: cell-based; conditions: EW33, inoculum 10^6 cells/ml
Description: as §1, §2, §3

[15] = tested on: Shigella typhosa Boxhill-58; experiment: Antibacterial activity in vitro (MIC); assay type: cell-based
Description: as §1, §2, §3

[16] = tested on: Staphylococcus aureus 1840; experiment: Antibacterial activity in vitro (MIC); assay type: cell-based
Description: as §1, §2, §3

[17] = tested on: Staphylococcus aureus FDA 209P; experiment: Antibacterial activity in vitro (MIC); assay type: cell-based; conditions: FDA209P
Description: as §1, §2, §3

[18] = tested on: Staphylococcus epidermidis ATCC 12228; experiment: Antibacterial activity in vitro (MIC); assay type: cell-based; conditions: ATCC12228
Description: as §1, §2, §3

[19] = tested on: Streptococcus lactis IFO 12546; experiment: Antibacterial activity in vitro (MIC); assay type: cell-based; conditions: Lactococcus lactis, IFO12546
Description: as §1, §2, §3

[20] = tested on: Streptococcus sp. IFO 3535; experiment: Antibacterial activity in vitro (MIC); assay type: cell-based; conditions: IFO3535
Description: as §1, §2, §3

[21] = tested on: Streptococcus viridans America; experiment: Antibacterial activity in vitro (MIC); assay type: cell-based
Description: as §1, §2, §3

[22] = tested on: Xanthomonas maltophilia IFO 12690; experiment: Antibacterial activity in vitro (MIC); assay type: cell-based; conditions: Stenotrophomonas maltophilia, IFO12690; inoculum 10^6 cells/ml
Description: as §1, §2, §3

E. coli KC-14 [23] = experiment: MIC of the infecting organism (Experiment 2); assay type: cell-based; conditions: Escherichia coli, KC14
Description: (§4) Experimental infection was caused by inoculating male mice intraperitoneally with each organism. Each of the test compounds was administered orally to the mice, one hour after the inoculation. The therapeutic effect of each compounds was judged by using a 50% effective dose (ED50) from the survival rate on day 7 after injection by the Probit method as described in Proc. Soc. Exp. Biol. Med., Vol. 57, p.261-264, 1944. The Minimum inhibitory concentrations (MIC) were also measured.

S. aureus Smith [24] = experiment: MIC of the infecting organism (Experiment 2); assay type: cell-based; conditions: Staphylococcus aureus
Description: as §4

E. coli KC-14 [25] = experiment: Protective effect against experimental infection in mice; assay type: in vivo; conditions: oral, 1 h after i.p. inoculation of 5.75 × 10^4 cells/mouse [488 LD50] with mucin; survival day 7; 95% confidence limit
Description: as §4
(§5) (The overnight cultures of test organisms with an asterisk (*) were
(§6) diluted with 50% mucin and 0.5 ml of each was injected intraperitoneally
(§7) into mice. A double asterisk (**) means a 95% confidence limit. MRSA mean
(§8) methycillinresistant Staphylococcus aureus.)

S. aureus 109(MRSA) = experiment: as above; assay type: in vivo; conditions: oral, 1 h after i.p. inoculation of 4.93 × 10^8 cells/mouse [5.7 LD50] with mucin; survival day 7; 95% confidence limit
Description: as §4, §5, §6, §7, §8

S. aureus Smith [26] = experiment: as above; assay type: in vivo; conditions: oral, 1 h after i.p. inoculation of 2.13 × 10^6 cells/mouse [792 LD50] with mucin; survival day 7; 95% confidence limit
Description: as §4, §5, §6, §7, §8

S. pneumoniae Type III = experiment: as above; assay type: in vivo; conditions: oral, 1 h after i.p. inoculation of 6.0 × 10^2 cells/mouse [12 LD50]; survival day 7; 95% confidence limit
Description: as §4, §5, §6, §7, §8

S. pyogenes C-203 = experiment: as above; assay type: in vivo; conditions: oral, 1 h after i.p. inoculation of 4.42 × 10^4 cells/mouse [680 LD50]; survival day 7; 95% confidence limit
Description: as §4, §5, §6, §7, §8

Q: Which results are given for O=C(O)c1cn(C2CC2)c2cc(N3CCNCC3)c(F)cc2c1=O [CPFX, 1-cyclopropyl-6-fluoro-1,4-dihydro-7-(1-piperazinyl)-4-oxoquinoline-3-carboxylic acid]?
A: MIC [1]: 0.2 µg/mL (≈ 0.604 µM); MIC [2]: 0.1 µg/mL (≈ 0.302 µM); MIC [3]: 0.025 µg/mL (≈ 0.0754 µM); MIC [4]: 0.012 µg/mL (≈ 0.0362 µM); MIC [5]: 0.1 µg/mL (≈ 0.302 µM); MIC [6]: 0.025 µg/mL (≈ 0.0754 µM); MIC (Escherichia coli O-111): 0.012 µg/mL (≈ 0.0362 µM); MIC (Escherichia coli T-7): 0.012 µg/mL (≈ 0.0362 µM); MIC (Klebsiella pneumoniae DT): 0.025 µg/mL (≈ 0.0754 µM); MIC [7]: 0.025 µg/mL (≈ 0.0754 µM); MIC [8]: 0.1 µg/mL (≈ 0.302 µM); MIC [9]: 0.1 µg/mL (≈ 0.302 µM); MIC [10]: 0.05 µg/mL (≈ 0.151 µM); MIC [11]: 0.2 µg/mL (≈ 0.604 µM); MIC [12]: 0.2 µg/mL (≈ 0.604 µM); MIC [13]: 0.1 µg/mL (≈ 0.302 µM); MIC [14]: 0.1 µg/mL (≈ 0.302 µM); MIC (Shigella flexneri EW-10): 0.012 µg/mL (≈ 0.0362 µM); MIC (Shigella sonnei EW-33): ≤ 0.006 µg/mL; MIC [15]: ≤ 0.006 µg/mL; MIC [16]: 3.13 µg/mL (≈ 9.45 µM); MIC [17]: 0.2 µg/mL (≈ 0.604 µM); MIC [18]: 0.2 µg/mL (≈ 0.604 µM); MIC [19]: 3.13 µg/mL (≈ 9.45 µM); MIC [20]: 3.13 µg/mL (≈ 9.45 µM); MIC [21]: 3.13 µg/mL (≈ 9.45 µM); MIC [22]: 0.05 µg/mL (≈ 0.151 µM); MIC (E. coli KC-14 [23]): ≤ 0.006 µg/mL; MIC (S. aureus Smith [24]): 0.1 µg/mL; ED50 (E. coli KC-14 [25]): 0.011(0.008-0.015) mg/mouse; ED50 (S. aureus 109(MRSA)): 1.163(0.460-1.660) mg/mouse; ED50 (S. aureus Smith [26]): 0.325(0.232-0.453) mg/mouse; ED50 (S. pneumoniae Type III): > 2 mg/mouse; ED50 (S. pyogenes C-203): > 2 mg/mouse
